PMC12031583 (Toxins, 2025)
“And” between values parts separate entries of the source, which are not always exact repeats. Equal entries are not always repeated. Where two headings read alike, the source gives them in different places.

Experiments:
[1] = biological target: T1, α1-acid glycoprotein (AGP) (Homo sapiens, UniProt P02763); settings: for effect on fluorescence emission signal of AGP / logK FL Quenching: pH 7.4
[2] = biological target: T2, β-lactoglobulin (LG, bovine) (Bos taurus, UniProt P02754); assay: biochemical; assay type: binding
[3] = biological target: T3, α-lactalbumin (LA, bovine) (Bos taurus, UniProt P00711); assay: biochemical; assay type: binding
[4] = biological target: casein (CSN, bovine); assay type: binding; settings: pH 6.8
[5] = biological target: T4, bovine serum albumin (BSA) (Bos taurus, UniProt P02769)
[6] = biological target: T4, bovine serum albumin (BSA); settings: cited from earlier work
[7] = biological target: T3, α-lactalbumin (LA, bovine); assay type: binding; settings: pH 6.8
[8] = test system: casein (CSN, bovine); assay type: binding; settings: pH 6.8; remark: listed apart in the source
[9] = biological target: T1, α1-acid glycoprotein (AGP); settings: pH 7.4
[10] = biological target: T1, α1-acid glycoprotein (AGP); assay type: binding
[11] = biological target: T1, α1-acid glycoprotein (AGP); settings: for logK FL Enhancement: pH 7.4
[12] = test system: human serum albumin (HSA); settings: cited from earlier work
[13] = biological target: T1, α1-acid glycoprotein (AGP); assay: in vitro
[14] = biological target: T1, α1-acid glycoprotein (AGP); assay: in vitro; settings: pH 7.4
[15] = biological target: T1, α1-acid glycoprotein (AGP); assay: in vitro; remark: listed apart in the source
[16] = biological target: T4, bovine serum albumin (BSA); assay: biochemical; settings: logK BSA
[17] = biological target: T2, β-lactoglobulin (LG, bovine); assay type: binding; settings: pH 6.8

T3 sequence (P00711 20-142 limits assumed): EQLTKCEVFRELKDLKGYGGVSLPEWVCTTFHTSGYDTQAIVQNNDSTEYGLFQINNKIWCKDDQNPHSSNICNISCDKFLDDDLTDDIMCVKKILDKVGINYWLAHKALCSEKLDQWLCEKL
T2 sequence (P02754 17-178 limits assumed): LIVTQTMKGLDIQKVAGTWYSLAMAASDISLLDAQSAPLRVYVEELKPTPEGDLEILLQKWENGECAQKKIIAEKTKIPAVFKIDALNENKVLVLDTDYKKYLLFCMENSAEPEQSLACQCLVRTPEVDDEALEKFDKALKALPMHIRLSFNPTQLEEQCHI
T1 sequence (P02763 19-201 limits assumed): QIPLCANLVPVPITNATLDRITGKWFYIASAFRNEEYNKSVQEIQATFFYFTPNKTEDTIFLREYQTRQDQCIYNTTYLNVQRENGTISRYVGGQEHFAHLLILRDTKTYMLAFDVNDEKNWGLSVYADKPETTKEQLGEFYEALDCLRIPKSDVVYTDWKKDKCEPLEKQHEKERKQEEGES
T4 sequence (P02769 25-607 limits assumed): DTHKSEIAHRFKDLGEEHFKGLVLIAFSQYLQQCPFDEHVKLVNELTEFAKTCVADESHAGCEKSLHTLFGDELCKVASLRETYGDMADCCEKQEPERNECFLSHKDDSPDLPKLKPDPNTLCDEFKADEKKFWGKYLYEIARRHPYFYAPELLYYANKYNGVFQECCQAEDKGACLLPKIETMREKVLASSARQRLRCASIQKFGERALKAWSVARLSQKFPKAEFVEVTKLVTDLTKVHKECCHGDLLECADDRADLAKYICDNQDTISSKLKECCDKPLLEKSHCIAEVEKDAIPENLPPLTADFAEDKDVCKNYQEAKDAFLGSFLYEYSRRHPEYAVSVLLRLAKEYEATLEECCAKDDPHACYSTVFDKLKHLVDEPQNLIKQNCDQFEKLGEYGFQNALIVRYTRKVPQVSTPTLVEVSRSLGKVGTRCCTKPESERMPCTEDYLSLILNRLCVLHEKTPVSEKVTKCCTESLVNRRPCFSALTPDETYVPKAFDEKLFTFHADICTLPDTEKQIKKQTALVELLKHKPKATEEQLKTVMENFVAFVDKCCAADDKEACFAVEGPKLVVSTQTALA

For `CC1=C[C@H]2O[C@@H]3[C@H](O)C[C@](C)([C@@]2(CO)[C@H](O)C1=O)[C@]31CO1` [DON, deoxynivalenol], the “effect on fluorescence emission signal of AGP” value (from here on “effect … of AGP”) [1] was “no or only minor decreases”.
In the case of `CC(=O)C1=C(O)[C@@H]2[C@H]3c4c[nH]c5cccc(c45)C[C@H]3C(C)(C)N2C1=O` [CPA, cyclopiazonic acid], the “effect … of AGP” value [1] is reported as “no or only minor decreases”.
With aflatoxin M1 [AFM1] the “effect of LG on mycotoxin level (free fraction) in supernatant” value ([2]; pH 6.8) was “did not show interactions”, the “effect of LA on mycotoxin level (free fraction) in supernatant” value ([3]; pH 6.8) was “did not show interactions” and the “logK CSN” value [4] was 2.70 ± 0.08. For the same compound, the “fold higher affinity (binding constant) to BSA vs CSN” value (shortened to “fold higher affinity … vs CSN”) [5] was 10 fold and the “logK BSA” value ([5]; pH 6.8) was 3.80 ± 0.03.
In the case of `Cc1cc(O)cc2oc(=O)c3c(O)cc(O)cc3c12` [AOH, alternariol], the “logK of OTA–BSA and AOH–BSA complexes” value [6] is given as 5.9.
With `CC1=C2C(=CO[C@H](C)[C@H]2C)C(O)=C(C(=O)O)C1=O` [CIT, citrinin] the “effect … of AGP” value [1] was “no or only minor decreases”.
For `O=C1C=C2C(=CCOC2O)O1` (centres unmarked) [PAT, patulin], the “effect … of AGP” value [1] was “no or only minor decreases”.
In the case of aflatoxin B1 [AFB1], the “effect of LG on mycotoxin level (free fraction) in supernatant” value ([2]; pH 6.8) is reported as “did not modify”, the “effect of LA on mycotoxin level (free fraction) in supernatant” value ([3]; pH 6.8) is reported as “did not modify” and the “effect … of AGP” value [1] is reported as “no or only minor decreases”. For the same compound, the “logK CSN” value [4] was 3.3 and 3.34 ± 0.03, the “quenching effect on fluorescence emission signal of LA” value (shortened to “quenching effect”) [7] was “slight” and the “logK of AFB1–BSA” value [6] was “≈ 4.5”. For the same compound, the “logK BSA” value ([5]; pH 6.8) was 4.1 and 4.11 ± 0.02 and the “effect on fluorescence emission signal of CSN” value [8] was “slight decreases”.
For `C[C@H]1CCC[C@H](O)CCC/C=C/c2cc(O)cc(O)c2C(=O)O1` [α-ZEL, α-zearalenol], the “logK LG” value ([2]; pH 6.8) was 3.35 ± 0.03, the “logK LA” value ([3]; pH 6.8) was 2.92 ± 0.06 and the “logK Ultracentrifugation” value [9] was 5.48 ± 0.07. The “logK ± SEM 1. (FL quenching)” value [1] was 5.57 ± 0.07, the “logK ± SEM 2. (FL quenching)” value [1] was 5.67 ± 0.05 and the “logK ± SEM 3. (FL quenching)” value [1] was 5.70 ± 0.06. For the same compound, the “logK FL Quenching” value [1] was 5.65 ± 0.04, the “binding constant (K) of mycotoxin–AGP complex” value [10] was “approximately 3 × 10^5 L/mol” and the “fold higher affinity to AGP compared to HSA” value [10] was roughly 5 fold. For the same compound, the “logK CSN” value [4] was 3.54 ± 0.01, the “logK ± SEM 1. (FL enhancement)” value [11] was 5.46 ± 0.06 and the “logK ± SEM 2. (FL enhancement)” value [11] was 5.46 ± 0.08. For the same compound, the “logK ± SEM 3. (FL enhancement)” value [11] was 5.62 ± 0.07, the “logK FL Enhancement” value [11] was 5.51 ± 0.05 and the “logK of complex with HSA” value [12] was 4.7. The “quenching effect” value [7] was “slight”, the “logK of ZEN–BSA and α-ZEL–BSA complexes” value [6] was 4.5 and the “fold higher affinity … vs CSN” value [5] was “approximately 20 fold”. For the same compound, the “effect on fluorescence emission signal of CSN” value [8] was “slight decreases”.
`C[C@H]1CCCC(=O)CCC/C=C/c2cc(O)cc(O)c2C(=O)O1` [ZEN, zearalenone] gave a Kd [2] of 891 µM, a Kd ([13]; pH 7.4, logK FL Quenching) of 1.26 µM and a Kd ([13]; pH 7.4, logK ± SEM 1. (FL quenching)) of 1.35 µM. The Kd ([13]; pH 7.4, logK ± SEM 2. (FL quenching)) was 1.45 µM, the Kd ([13]; pH 7.4, logK ± SEM 3. (FL quenching)) was 1 µM and the Kd [3] was 1620 µM. The “effect … of AGP” value [1] was “larger, concentration-dependent decreases”, the Kd [14] was 0.372 µM and the “logK CSN” value [4] was 3.48 ± 0.01. For the same compound, the “logK of complex with HSA” value [12] was 5.1, the “quenching effect” value [7] was “slight” and the “logK of ZEN–BSA and α-ZEL–BSA complexes” value [6] was 4.8. The “fold higher affinity … vs CSN” value ([5]; bovine, ultracentrifugation, pH 6.8) was “approximately 20 fold”, the Kd ([15]; pH 7.4, logK FL Enhancement) was 0.525 µM and the Kd ([15]; pH 7.4, logK ± SEM 1. (FL enhancement)) was 0.661 µM. For the same compound, the Kd ([15]; pH 7.4, logK ± SEM 2. (FL enhancement)) was 0.407 µM, the Kd ([15]; pH 7.4, logK ± SEM 3. (FL enhancement)) was 0.55 µM and the Kd [16] was 15.8 µM and 16.2 µM.
In the case of `COc1cc2c(c3oc4cccc(O)c4c(=O)c13)[C@@H]1C=CO[C@@H]1O2` [STC, sterigmatocystin], the “effect of LG on mycotoxin level (free fraction) in supernatant” value ([2]; pH 6.8) is reported as “not influenced”, the “effect of LA on mycotoxin level (free fraction) in supernatant” value ([3]; pH 6.8) is reported as “not influenced” and the “effect … of AGP” value [1] is reported as “larger, concentration-dependent decreases”. For the same compound, the “effect of CSN on mycotoxin level (free fraction) in supernatant” value [4] was “not influenced”, the “K value of STC–HSA complex” value [12] was “≈ 2 × 10^4 L/mol” and the Kd [16] was 100 µM and 105 µM.
For `CCCC[C@@H](C)[C@@H](OC(=O)C[C@@H](CC(=O)O)C(=O)O)[C@H](C[C@@H](C)C[C@H](O)CCCC[C@@H](O)C[C@H](O)[C@H](C)N)OC(=O)C[C@@H](CC(=O)O)C(=O)O` [FB1, fumonisin B1], the “effect … of AGP” value [1] was “no or only minor decreases”.
With `CC(=O)OC[C@]12C[C@H](OC(=O)CC(C)C)C(C)=C[C@H]1O[C@@H]1[C@H](O)[C@@H](OC(C)=O)[C@@]2(C)[C@]12CO2` [T2, T-2 toxin] the “effect … of AGP” value [1] was “no or only minor decreases” and the “effect on fluorescence emission signal of LG” value [17] was “minor increase”.
For `C[C@@H]1Cc2c(Cl)cc(C(=O)N[C@@H](Cc3ccccc3)C(=O)O)c(O)c2C(=O)O1` [OTA, ochratoxin A], the “effect … of AGP” value [1] is given as “no or only minor decreases”, the “quenching effect” value [7] is given as “slight” and the “logK of OTA–BSA and AOH–BSA complexes” value [6] is given as 6.5. For the same compound, the “effect on fluorescence emission signal of CSN” value [8] was “slight decreases”.
For `C[C@H]1CCC[C@@H](O)CCC/C=C/c2cc(O)cc(O)c2C(=O)O1` [β-ZEL, β-zearalenol], the “logK Ultracentrifugation” value [9] was 5.73 ± 0.02, the “logK ± SEM 1. (FL quenching)” value [1] was 5.76 ± 0.06 and the “logK ± SEM 2. (FL quenching)” value [1] was 5.82 ± 0.09. The “logK ± SEM 3. (FL quenching)” value [1] was 5.76 ± 0.08, the “logK FL Quenching” value [1] was 5.78 ± 0.02 and the “binding constant (K) of mycotoxin–AGP complex” value [10] was roughly 600000 L/mol. For the same compound, the “fold higher affinity to AGP compared to HSA” value [10] was roughly 30 fold, the “logK ± SEM 1. (FL enhancement)” value [11] was 5.83 ± 0.04 and the “logK ± SEM 2. (FL enhancement)” value [11] was 5.94 ± 0.16. The “logK ± SEM 3. (FL enhancement)” value [11] was 6.04 ± 0.11, the “logK FL Enhancement” value [11] was 5.94 ± 0.06 and the “logK of complex with HSA” value [12] was 4.3.
